Molecules are shown by their SMILES. Like-named read-outs stand apart in the source and are kept apart here. Some results are limits rather than exact numbers.

This note sets out measurements from patent US11485736B2 (KSQ Therapeutics, Inc., priority 2018, dated 2022).

Series [1] can be described thus: ADME solubility determination at pH 2.0 and pH 7.4. Conditions: aqueous buffer, thermodynamic from solid, LC-MS/MS. The class given is physicochemical. A digest of the protocol: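 Dried residues of 10 mM DMSO stocks were shaken in PBS pH 7.4 or pH 2.0 for 24 hours at 25° C. and 1,100 rpm. After centrifugation, supernatants were quantified by LC-MS/MS against a standard of known concentration, applying a dilution factor.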

Series [2] in a line: Liver microsomal stability, human liver microsomes. In kind it is in vitro ADME. Particulars: 1 μM compound, NADPH, read-out: t1/2 (min) in HLM. The procedure, abridged:
(§1)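 Compound (1 μM final) was incubated with prewarmed human or rat liver microsomes (1 mg/mL in 100 mM phosphate master mix) plus NADPH; aliquots at 0.5–30 minutes were quenched in cold acetonitrile and quantified by LC-MS/MS. Half-life came from the ln(% remaining) versus time slope, converted to CLint (μL/min/mg prot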
In general terms: Liver microsomes are vesicles of endoplasmic reticulum, rich in cytochrome P450 enzymes.

The nature of series [3]: Liver microsomal stability, rat liver microsomes. The class given is in vitro ADME. Particulars: 1 μM compound, NADPH, read-out: t1/2 (min) in RLM. The procedure, abridged: as §1
Where [4] appears, read: PBS pH 2.0, shaken at 25° C. for 24 hours, read-out: Solubility at pH 2.0.
The mark [5] stands for this setting: PBS pH 7.4, shaken at 25° C. for 24 hours, read-out: Solubility at pH 7.4.

With `CCn1cc(C(F)(F)F)nc1-c1ccc(Cn2ncc3cnc(-c4c(OC)cnn4C4CCC4)nc32)cc1` [Example 84], the solubility at 24 h in series [1] (setting [4]) and in series [1] (setting [5]) was less than 10 µM throughout. Besides, the half-life at 1 μM in series [2] and in series [3] was less than 25 min throughout.

Turning to `COc1ncnc(C2CC2)c1-c1ncc2cnn(Cc3ccc(-c4nc(C(F)(F)F)n(C)n4)cc3)c2n1` [Example 85], the solubility at 24 h in series [1] (setting [4]) and in series [1] (setting [5]) was less than 10 µM each time. The half-life at 1 μM in series [2] and in series [3] was more than 25 min throughout.

`COc1ncnc(OC)c1-c1ncc2cnn(Cc3ccc(-c4nc(C(F)(F)F)cn4C)cc3)c2n1` [Example 86]: the solubility at 24 h in series [1] (setting [4]) and in series [1] (setting [5]) was more than 10 µM in each case. For the same compound, the half-life at 1 μM in series [2] and in series [3] was more than 25 min each time.

Consider `CCn1cc(C(F)(F)F)nc1-c1ccc(Cn2ncc3cnc(-c4c(OC)ncnc4OC)nc32)cc1` [Example 87], for which the solubility at 24 h in series [1] (setting [4]) and in series [1] (setting [5]) was more than 10 µM in each case. In addition, the half-life at 1 μM in series [2] and in series [3] was more than 25 min in each case.

`CCn1cc(C(F)(F)F)nc1-c1ccc([C@H](C)n2ncc3cnc(-c4c(OC)ncnc4OC)nc32)cc1` [Example 88]: the solubility at 24 h in series [1] (setting [4]) and in series [1] (setting [5]) was more than 10 µM in each case. For the same compound, the half-life at 1 μM is more than 25 min in series [2] and less than 25 min in series [3].

On to `CCn1cc(C(F)(F)F)nc1-c1ccc([C@@H](C)n2ncc3cnc(-c4c(OC)ncnc4OC)nc32)cc1` [Example 89], for which the solubility at 24 h in series [1] (setting [4]) and in series [1] (setting [5]) was more than 10 µM in each case. Moreover, the half-life at 1 μM in series [2] and in series [3] was more than 25 min in each case.

Turning to `COc1ncnc(OC)c1-c1ncc2cnn(Cc3ccc(-c4nc(C(F)(F)F)cn4C(C)C)cc3)c2n1` [Example 90], the solubility at 24 h in series [1] (setting [4]) and in series [1] (setting [5]) was more than 10 µM each time. Besides, the half-life at 1 μM in series [2] and in series [3] was more than 25 min throughout.

Take `CCOc1ncnc(OCC)c1-c1ncc2cnn(Cc3ccc(-c4nc(C(F)(F)F)cn4CC)cc3)c2n1` [Example 91]: the solubility at 24 h was more than 10 µM in series [1] (setting [4]) and less than 10 µM in series [1] (setting [5]). Besides, the half-life at 1 μM in series [2] and in series [3] was less than 25 min each time.

Consider `CCn1cc(C(F)(F)F)nc1-c1ccc([C@H](C)n2ncc3cnc(-c4c(OC)ncnc4C4CC4)nc32)cc1F` [Example 96], for which the solubility at 24 h in series [1] (setting [4]) and in series [1] (setting [5]) was less than 10 µM throughout. Besides, the half-life at 1 μM in series [2] and in series [3] was more than 25 min in each case.

For `COc1ncnc(C2CC2)c1-c1ncc2cnn([C@@H](C)c3ccc(-c4nc(C(F)(F)F)cn4C(C)C)cc3)c2n1` [Example 97], the solubility at 24 h in series [1] (setting [4]) is more than 10 µM; in series [1] (setting [5]), less than 10 µM. The half-life at 1 μM in series [2] and in series [3] was more than 25 min in each case.

On to `COc1ncnc(C2CC2)c1-c1ncc2cnn([C@H](C)c3ccc(-c4nc(C(F)(F)F)cn4C(C)C)cc3)c2n1` [Example 98], for which the solubility at 24 h in series [1] (setting [4]) and in series [1] (setting [5]) was more than 10 µM each time. Further, the figures for the half-life at 1 μM in series [2] and in series [3] were more than 25 min and less than 25 min, respectively.

Take `CCn1cc(C(F)(F)F)nc1-c1ccc(Cn2ncc3cnc(-c4c(OC)ncnc4C4CN(C)C4)nc32)cc1` [Example 101]: the solubility at 24 h in series [1] (setting [4]) is more than 10 µM; in series [1] (setting [5]), less than 10 µM. For the same compound, the half-life at 1 μM in series [2] and in series [3] was less than 25 min throughout.

Consider `COc1ncnc(C2(C)CC2)c1-c1ncc2cnn(Cc3ccc(-c4nc(C(F)(F)F)cn4C)cc3)c2n1` [Example 104], for which the solubility at 24 h in series [1] (setting [4]) and in series [1] (setting [5]) was more than 10 µM each time. The half-life at 1 μM in series [2] and in series [3] was less than 25 min throughout.

Take `COc1ncnc(C2(C)CC2)c1-c1ncc2cnn(Cc3ccc(-n4nc(C(F)(F)F)cc4C)cc3)c2n1` [Example 105]: the solubility at 24 h in series [1] (setting [4]) was more than 10 µM; in series [1] (setting [5]), less than 10 µM. The half-life at 1 μM in series [2] and in series [3] was more than 25 min throughout.

For `COc1ncnc(C2(C)CC2)c1-c1ncc2cnn(Cc3ccc(-n4nc(C(F)(F)F)cc4OC)cc3)c2n1` [Example 106], the solubility at 24 h in series [1] (setting [4]) and in series [1] (setting [5]) was less than 10 µM each time. Besides, the half-life at 1 μM in series [2] and in series [3] was more than 25 min each time.

As for `COc1ncnc(C2(C)CC2)c1-c1ncc2cnn(Cc3ccc(-c4nc(C(F)(F)F)cn4C(C)C)cc3)c2n1` [Example 107], the solubility at 24 h in series [1] (setting [4]) and in series [1] (setting [5]) was more than 10 µM in each case. The half-life at 1 μM in series [2] and in series [3] was more than 25 min in each case.

Take `COc1ncnc(C2CC2(C)C)c1-c1ncc2cnn(Cc3ccc(-c4nc(C(F)(F)F)cn4C(C)C)cc3)c2n1` (stereo not shown) [Example 108]: the solubility at 24 h in series [1] (setting [4]) was more than 10 µM; in series [1] (setting [5]), less than 10 µM. Further, the half-life at 1 μM in series [2] and in series [3] was less than 25 min each time.

Turning to `COc1ncnc(C(C)(C)C)c1-c1ncc2cnn(Cc3ccc(-c4nc(C(F)(F)F)cn4C)cc3)c2n1` [Example 109], the solubility at 24 h in series [1] (setting [4]) and in series [1] (setting [5]) was less than 10 µM in each case. The half-life at 1 μM in series [2] and in series [3] was less than 25 min each time.

`COc1ncnc(C(C)(C)F)c1-c1ncc2cnn(Cc3ccc(-c4nc(C(F)(F)F)cn4C)cc3)c2n1` [Example 110]: the solubility at 24 h in series [1] (setting [4]) and in series [1] (setting [5]) was more than 10 µM each time. The results for the half-life at 1 μM in series [2] and in series [3] were less than 25 min and more than 25 min, respectively.

On to `COc1nc(C)c(-c2ncc3cnn(Cc4ccc(-c5nc(C(F)(F)F)cn5C)cc4)c3n2)c(OC)n1` [Example 111], for which the solubility at 24 h was more than 10 µM in series [1] (setting [4]) and less than 10 µM in series [1] (setting [5]). Further, the half-life at 1 μM in series [2] was less than 25 min; in series [3] it was more than 25 min.

With `COc1nc(N)nc(C2CC2)c1-c1ncc2cnn(Cc3ccc(-n4nc(C(F)(F)F)cc4C)cc3)c2n1` [Example 112], the solubility at 24 h in series [1] (setting [4]) is more than 10 µM; in series [1] (setting [5]), less than 10 µM. For the same compound, the half-life at 1 μM in series [2] and in series [3] was more than 25 min each time.

Consider `CCOc1ncnc(OC)c1-c1ncc2cnn(Cc3ccc(-c4nc(C(F)(F)F)cn4CC)cc3)c2n1` [Example 113], for which the solubility at 24 h in series [1] (setting [4]) and in series [1] (setting [5]) was more than 10 µM each time. In addition, the half-life at 1 μM was more than 25 min in series [2] and less than 25 min in series [3].

With `CCn1cc(C(F)(F)F)nc1-c1ccc(Cn2ncc3cnc(-c4c(OC)ncnc4OC4CC4)nc32)cc1` [Example 114], the solubility at 24 h in series [1] (setting [4]) and in series [1] (setting [5]) was more than 10 µM throughout. Moreover, the half-life at 1 μM in series [2] and in series [3] was less than 25 min each time.

Regarding `COc1ncnc(C(C)C)c1-c1ncc2cnn(Cc3ccc(-n4nc(C(F)(F)F)cc4C)cc3)c2n1` [Example 115], the solubility at 24 h in series [1] (setting [4]) and in series [1] (setting [5]) was less than 10 µM each time. Moreover, the half-life at 1 μM in series [2] and in series [3] was less than 25 min throughout.

`CCn1cc(C(F)(F)F)nc1-c1ccc(C(C)n2ncc3cnc(-c4c(OC)ncnc4C(C)C)nc32)cc1F` (stereo not shown) [Example 116]: the values for the solubility at 24 h in series [1] (setting [4]) and in series [1] (setting [5]) were more than 10 µM and less than 10 µM, respectively. The half-life at 1 μM in series [2] and in series [3] was less than 25 min throughout.

In general, solubility refers to the dissolved amount per volume that the medium holds.
